We go through two compounds from ChEMBL document CHEMBL5463728, “Data for DCP probe BAY-6096” (2023).

Test [1] deals with Alpha-2C adrenergic receptor (Homo sapiens, UniProt P18825). The experiment in a line: Adrenoceptor reporter cell assay (ADRA2C). The format is functional.
Test [2] deals with 5-hydroxytryptamine receptor 7 (Homo sapiens) (UniProt P34969). The settings on record: Compound concentration 10.0 uM.
Test [3] deals with T1, 5-hydroxytryptamine receptor 1A (Homo sapiens) (UniProt P08908).
T1 sequence (whole entry): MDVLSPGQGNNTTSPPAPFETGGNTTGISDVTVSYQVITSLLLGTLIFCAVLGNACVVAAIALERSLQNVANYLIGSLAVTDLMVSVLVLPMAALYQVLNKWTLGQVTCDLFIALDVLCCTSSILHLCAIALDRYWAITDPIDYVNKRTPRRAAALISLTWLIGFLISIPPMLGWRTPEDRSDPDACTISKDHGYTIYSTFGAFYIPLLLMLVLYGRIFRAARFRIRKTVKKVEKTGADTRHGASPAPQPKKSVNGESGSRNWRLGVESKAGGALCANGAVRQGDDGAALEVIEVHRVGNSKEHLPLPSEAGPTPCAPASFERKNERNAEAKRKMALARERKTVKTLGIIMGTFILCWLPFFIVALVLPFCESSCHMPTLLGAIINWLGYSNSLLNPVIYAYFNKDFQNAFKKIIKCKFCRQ
The settings on record: Compound concentration 10.0 uM.

The target in test [4] is Type-2 angiotensin II receptor (Homo sapiens) (UniProt P50052). The settings on record: Compound concentration 10.0 uM.
The target in test [5] is D(2) dopamine receptor (Homo sapiens, UniProt P14416). The settings on record: Compound concentration 10.0 uM.
Sequence of D(2) dopamine receptor (P14416 whole entry): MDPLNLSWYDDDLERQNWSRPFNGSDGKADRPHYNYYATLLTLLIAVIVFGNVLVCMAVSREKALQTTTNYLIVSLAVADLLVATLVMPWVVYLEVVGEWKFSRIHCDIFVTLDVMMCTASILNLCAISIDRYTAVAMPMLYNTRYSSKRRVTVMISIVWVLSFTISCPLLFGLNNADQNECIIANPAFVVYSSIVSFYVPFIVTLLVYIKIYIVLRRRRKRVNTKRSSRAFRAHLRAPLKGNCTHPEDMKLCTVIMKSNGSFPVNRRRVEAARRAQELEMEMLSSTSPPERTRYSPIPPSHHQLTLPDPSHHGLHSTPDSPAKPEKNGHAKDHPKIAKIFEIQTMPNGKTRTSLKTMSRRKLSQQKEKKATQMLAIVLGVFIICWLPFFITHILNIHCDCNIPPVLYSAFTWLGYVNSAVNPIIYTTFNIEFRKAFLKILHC
Test [6] addresses Beta-2 adrenergic receptor (Homo sapiens, UniProt P07550). The settings on record: Compound concentration 10.0 uM.
For test [7], the target named is D(3) dopamine receptor (Homo sapiens) (UniProt P35462). Particulars: Compound concentration 10.0 uM; call rule not given here.
Sequence of D(3) dopamine receptor (Homo sapiens) (P35462 whole entry): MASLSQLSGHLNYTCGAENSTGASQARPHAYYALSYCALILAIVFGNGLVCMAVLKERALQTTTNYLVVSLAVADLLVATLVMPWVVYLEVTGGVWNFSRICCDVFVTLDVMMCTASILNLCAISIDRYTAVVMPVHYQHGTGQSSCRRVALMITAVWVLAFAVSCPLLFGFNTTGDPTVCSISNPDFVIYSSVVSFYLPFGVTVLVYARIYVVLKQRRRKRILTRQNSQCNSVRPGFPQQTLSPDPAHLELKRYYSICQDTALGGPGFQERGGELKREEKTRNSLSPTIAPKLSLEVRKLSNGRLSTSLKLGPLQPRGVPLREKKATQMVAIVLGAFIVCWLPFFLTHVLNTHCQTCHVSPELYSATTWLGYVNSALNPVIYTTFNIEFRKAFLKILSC
The target of test [8] is Purinergic P2Y (Rattus norvegicus) (UniProt O35811+Q9EPX4+P49651+Q63371+P41232+O35881+Q6GUG4). Particulars: Compound concentration 10.0 uM.
Test [9] concerns the target T2, 5-hydroxytryptamine receptor 2C (Homo sapiens) (UniProt P28335).
T2 sequence (whole entry): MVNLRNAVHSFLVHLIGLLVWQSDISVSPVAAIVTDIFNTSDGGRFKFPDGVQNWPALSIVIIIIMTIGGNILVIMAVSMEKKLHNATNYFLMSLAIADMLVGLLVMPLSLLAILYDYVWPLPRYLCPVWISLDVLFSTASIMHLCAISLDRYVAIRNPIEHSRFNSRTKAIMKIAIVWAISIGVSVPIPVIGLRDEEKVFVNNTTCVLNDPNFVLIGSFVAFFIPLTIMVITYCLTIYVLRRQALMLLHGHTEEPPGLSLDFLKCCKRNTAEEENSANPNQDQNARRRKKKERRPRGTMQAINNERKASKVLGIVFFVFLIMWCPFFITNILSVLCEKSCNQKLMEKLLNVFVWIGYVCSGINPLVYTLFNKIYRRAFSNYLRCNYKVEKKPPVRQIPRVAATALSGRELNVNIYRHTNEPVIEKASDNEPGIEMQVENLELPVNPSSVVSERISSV
Particulars: Compound concentration 10.0 uM.

The target of test [10] is Sodium-dependent serotonin transporter (Homo sapiens) (UniProt P31645). The settings on record: Compound concentration 10.0 uM.
Sequence of Sodium-dependent serotonin transporter (Homo sapiens) (P31645 whole entry, looked up): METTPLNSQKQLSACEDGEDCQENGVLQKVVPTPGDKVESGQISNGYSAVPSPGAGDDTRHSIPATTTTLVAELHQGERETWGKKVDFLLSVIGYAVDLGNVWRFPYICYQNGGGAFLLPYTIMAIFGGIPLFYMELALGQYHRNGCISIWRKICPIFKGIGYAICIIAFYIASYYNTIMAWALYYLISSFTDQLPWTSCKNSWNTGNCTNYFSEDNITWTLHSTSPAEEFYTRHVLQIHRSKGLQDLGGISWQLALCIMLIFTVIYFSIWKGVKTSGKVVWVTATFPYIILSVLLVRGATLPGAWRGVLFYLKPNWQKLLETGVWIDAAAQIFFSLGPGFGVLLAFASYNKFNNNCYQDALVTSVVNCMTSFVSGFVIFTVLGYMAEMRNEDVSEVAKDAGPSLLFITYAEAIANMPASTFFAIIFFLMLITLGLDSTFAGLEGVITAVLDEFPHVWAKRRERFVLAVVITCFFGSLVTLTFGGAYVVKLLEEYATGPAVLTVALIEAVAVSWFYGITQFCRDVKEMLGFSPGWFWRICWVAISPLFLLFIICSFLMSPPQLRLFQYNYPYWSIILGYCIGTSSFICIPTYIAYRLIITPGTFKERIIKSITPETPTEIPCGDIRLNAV
The target of test [11] is Type-1 angiotensin II receptor (Homo sapiens) (UniProt P30556). Particulars: Compound concentration 10.0 uM.
The target of test [12] is Vasopressin V1a receptor (Homo sapiens) (UniProt P37288). The settings on record: Compound concentration 10.0 uM.
Test [13] deals with 5-hydroxytryptamine receptor 5A (Homo sapiens) (UniProt P47898). Particulars: Compound concentration 10.0 uM.
Sequence of 5-hydroxytryptamine receptor 5A (Homo sapiens) (P47898 whole entry): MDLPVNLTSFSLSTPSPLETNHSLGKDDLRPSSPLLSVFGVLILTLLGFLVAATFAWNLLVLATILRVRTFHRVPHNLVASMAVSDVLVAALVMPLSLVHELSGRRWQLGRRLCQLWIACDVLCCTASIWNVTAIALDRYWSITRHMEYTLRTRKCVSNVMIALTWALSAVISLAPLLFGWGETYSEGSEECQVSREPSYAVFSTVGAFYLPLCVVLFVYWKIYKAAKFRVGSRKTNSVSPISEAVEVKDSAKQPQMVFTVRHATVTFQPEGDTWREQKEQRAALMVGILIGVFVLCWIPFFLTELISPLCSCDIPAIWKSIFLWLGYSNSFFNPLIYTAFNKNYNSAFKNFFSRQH
In test [14] the target is Progesterone receptor (Homo sapiens) (UniProt P06401). The settings on record: Compound concentration 10.0 uM.
Test [15] has as its target Kappa-type opioid receptor (Homo sapiens) (UniProt P41145). The settings on record: Compound concentration 10.0 uM.
For test [16], the target named is Alpha-1B adrenergic receptor (Homo sapiens) (UniProt P35368). Particulars: Compound concentration 10.0 uM.
Test [17] deals with Glutamate receptor ionotropic, kainate (Rattus norvegicus) (UniProt P22756+Q01812+P42260+P42264+Q63273). Particulars: Compound concentration 10.0 uM.
Test [18] has as its target Muscarinic acetylcholine receptor M5 (Homo sapiens) (UniProt P08912). The settings on record: Compound concentration 10.0 uM.
Test [19] has as its target Polyunsaturated fatty acid lipoxygenase ALOX15 (Homo sapiens) (UniProt P16050). The experiment in a line: Inhibition of Lipoxygenase 15-LO at compound concentration of 10.0 uM in the Eurofins-Panlabs enzyme assay (Eurofins_assay_199017). The settings on record: Compound concentration 10.0 uM.
In test [20] the target is Carbonic anhydrase 2 (Homo sapiens) (UniProt P00918). The experiment in a line: Inhibition of Carbonic Anhydrase II at compound concentration of 10.0 uM in the Eurofins-Panlabs enzyme assay (Eurofins_assay_112020). On the set-up: substrate with concentration. The settings on record: Compound concentration 10.0 uM.
For test [21], the target named is T1, 5-hydroxytryptamine receptor 1A (Homo sapiens). The settings on record: Compound concentration 10.0 uM. This is another data set of the same source.
The target of test [22] is GABA-A receptor; anion channel (Rattus norvegicus) (UniProt O09028+P15431+P18506+P18508+P19969+P20236+P23574+P23576+P28471+P28473+P30191+P62813+P63079+P63138+Q91ZM7+Q9ES14). The settings on record: Compound concentration 10.0 uM.
The target of test [23] is Aldo-keto reductase family 1 member B1 (Rattus norvegicus) (UniProt P07943). The experiment in a line: Inhibition of Aldose Reductase at compound concentration of 10.0 uM in the Eurofins-Panlabs enzyme assay (Eurofins_assay_107000). On the set-up: substrate with concentration. The settings on record: Compound concentration 10.0 uM.
The target in test [24] is Alpha-1A adrenergic receptor (Homo sapiens, UniProt P35348). The experiment in a line: Adrenoceptor reporter cell assay (ADRA1A). The format is functional.
In test [25] the target is Mu-type opioid receptor (Homo sapiens) (UniProt P35372). The settings on record: Compound concentration 10.0 uM.
Sequence of Mu-type opioid receptor (Homo sapiens) (P35372 whole entry): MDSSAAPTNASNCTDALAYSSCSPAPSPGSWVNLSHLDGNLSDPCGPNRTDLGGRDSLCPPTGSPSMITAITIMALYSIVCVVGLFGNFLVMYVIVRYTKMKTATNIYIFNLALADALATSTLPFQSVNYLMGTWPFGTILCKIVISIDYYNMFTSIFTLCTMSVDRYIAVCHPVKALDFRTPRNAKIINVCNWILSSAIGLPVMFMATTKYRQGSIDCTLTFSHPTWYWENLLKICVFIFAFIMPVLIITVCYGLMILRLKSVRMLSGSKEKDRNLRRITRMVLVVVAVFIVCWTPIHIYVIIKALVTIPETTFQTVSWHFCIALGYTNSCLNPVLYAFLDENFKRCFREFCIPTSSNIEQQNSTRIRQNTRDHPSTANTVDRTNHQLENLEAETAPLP
Test [26] concerns the target Beta-3 adrenergic receptor (Homo sapiens, UniProt P13945). The experiment in a line: Adrenoceptor reporter cell assay (ADRB3). The format is functional.
For test [27], the target named is Alpha-1D adrenergic receptor (Homo sapiens) (UniProt P25100). The settings on record: Compound concentration 10.0 uM.
Sequence of Alpha-1D adrenergic receptor (Homo sapiens) (P25100 whole entry): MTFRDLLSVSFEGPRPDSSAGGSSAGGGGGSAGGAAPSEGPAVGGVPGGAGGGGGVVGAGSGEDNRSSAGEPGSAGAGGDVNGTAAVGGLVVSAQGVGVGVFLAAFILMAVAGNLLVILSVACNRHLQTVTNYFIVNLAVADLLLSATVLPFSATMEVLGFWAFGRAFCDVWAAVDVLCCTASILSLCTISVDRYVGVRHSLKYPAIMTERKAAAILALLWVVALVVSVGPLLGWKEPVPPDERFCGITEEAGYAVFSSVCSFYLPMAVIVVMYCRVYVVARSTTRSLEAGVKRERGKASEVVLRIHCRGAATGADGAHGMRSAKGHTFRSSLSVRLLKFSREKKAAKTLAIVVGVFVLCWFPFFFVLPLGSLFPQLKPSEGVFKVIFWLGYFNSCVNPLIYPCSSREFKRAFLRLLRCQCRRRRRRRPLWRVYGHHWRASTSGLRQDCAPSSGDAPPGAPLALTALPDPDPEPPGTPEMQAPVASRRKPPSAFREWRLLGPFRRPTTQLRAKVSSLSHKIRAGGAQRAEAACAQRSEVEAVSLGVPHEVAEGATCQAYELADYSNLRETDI
In test [28] the target is 5-hydroxytryptamine receptor 1D (Homo sapiens) (UniProt P28221). The settings on record: Compound concentration 10.0 uM.
Sequence of 5-hydroxytryptamine receptor 1D (Homo sapiens) (P28221 whole entry): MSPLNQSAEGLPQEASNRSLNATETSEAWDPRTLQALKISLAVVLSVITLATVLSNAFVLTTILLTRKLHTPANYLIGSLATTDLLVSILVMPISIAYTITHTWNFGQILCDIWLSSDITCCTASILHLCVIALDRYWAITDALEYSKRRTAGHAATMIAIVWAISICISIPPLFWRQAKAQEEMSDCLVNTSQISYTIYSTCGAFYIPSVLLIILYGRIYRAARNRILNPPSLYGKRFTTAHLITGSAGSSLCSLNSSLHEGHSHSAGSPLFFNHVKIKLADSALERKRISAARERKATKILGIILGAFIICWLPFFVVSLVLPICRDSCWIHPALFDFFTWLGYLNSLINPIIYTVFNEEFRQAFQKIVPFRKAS
Test [29] addresses Histamine H1 receptor (Homo sapiens) (UniProt P35367). The settings on record: Compound concentration 10.0 uM.
Test [30] has as its target Alpha-2B adrenergic receptor (Canis lupus familiaris, UniProt Q2MDQ0). The experiment in a line: Cell based assay dog (ADRA2B). The format is functional.
For test [31], the target named is Muscarinic acetylcholine receptor M1 (Homo sapiens) (UniProt P11229). The settings on record: Compound concentration 10.0 uM.

Sequence of 5-hydroxytryptamine receptor 7 (Homo sapiens) (P34969 whole entry): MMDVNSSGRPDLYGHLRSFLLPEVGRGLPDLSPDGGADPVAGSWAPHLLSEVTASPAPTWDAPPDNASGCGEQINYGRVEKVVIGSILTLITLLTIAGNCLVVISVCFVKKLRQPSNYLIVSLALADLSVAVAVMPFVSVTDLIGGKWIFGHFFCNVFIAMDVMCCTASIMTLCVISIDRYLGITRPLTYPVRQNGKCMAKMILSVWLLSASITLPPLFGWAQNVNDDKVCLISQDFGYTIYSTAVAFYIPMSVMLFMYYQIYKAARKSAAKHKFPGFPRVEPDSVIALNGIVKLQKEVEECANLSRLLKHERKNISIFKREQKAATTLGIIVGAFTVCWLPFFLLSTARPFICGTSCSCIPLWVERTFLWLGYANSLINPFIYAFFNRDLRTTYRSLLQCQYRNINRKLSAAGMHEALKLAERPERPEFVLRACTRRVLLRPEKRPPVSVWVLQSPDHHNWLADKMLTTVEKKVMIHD
Sequence of Muscarinic acetylcholine receptor M5 (Homo sapiens) (P08912 whole entry): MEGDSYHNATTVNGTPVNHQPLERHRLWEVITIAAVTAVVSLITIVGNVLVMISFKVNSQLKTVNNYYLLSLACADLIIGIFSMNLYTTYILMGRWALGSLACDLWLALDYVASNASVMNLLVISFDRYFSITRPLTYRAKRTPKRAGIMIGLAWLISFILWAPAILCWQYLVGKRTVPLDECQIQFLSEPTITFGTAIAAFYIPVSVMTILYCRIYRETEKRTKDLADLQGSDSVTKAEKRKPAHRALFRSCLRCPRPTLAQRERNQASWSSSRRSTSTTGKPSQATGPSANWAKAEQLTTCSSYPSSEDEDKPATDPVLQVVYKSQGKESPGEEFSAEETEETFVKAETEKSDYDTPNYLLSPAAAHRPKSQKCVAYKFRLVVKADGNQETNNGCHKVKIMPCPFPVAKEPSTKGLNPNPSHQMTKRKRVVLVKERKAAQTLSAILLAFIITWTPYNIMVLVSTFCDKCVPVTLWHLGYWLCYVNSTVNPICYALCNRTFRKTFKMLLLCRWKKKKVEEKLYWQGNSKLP
Sequence of Kappa-type opioid receptor (Homo sapiens) (P41145 whole entry): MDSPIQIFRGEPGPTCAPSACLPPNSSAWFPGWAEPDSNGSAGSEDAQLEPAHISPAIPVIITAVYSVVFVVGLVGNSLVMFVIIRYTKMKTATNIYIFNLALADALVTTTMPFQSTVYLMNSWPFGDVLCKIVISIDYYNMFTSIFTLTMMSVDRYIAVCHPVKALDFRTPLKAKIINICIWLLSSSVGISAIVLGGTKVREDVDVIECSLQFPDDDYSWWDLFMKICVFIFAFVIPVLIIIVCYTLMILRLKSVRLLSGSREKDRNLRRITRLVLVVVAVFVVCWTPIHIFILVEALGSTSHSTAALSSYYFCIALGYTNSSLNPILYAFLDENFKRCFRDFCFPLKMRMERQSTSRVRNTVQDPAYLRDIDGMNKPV
Sequence of Alpha-2B adrenergic receptor (Q2MDQ0 whole entry): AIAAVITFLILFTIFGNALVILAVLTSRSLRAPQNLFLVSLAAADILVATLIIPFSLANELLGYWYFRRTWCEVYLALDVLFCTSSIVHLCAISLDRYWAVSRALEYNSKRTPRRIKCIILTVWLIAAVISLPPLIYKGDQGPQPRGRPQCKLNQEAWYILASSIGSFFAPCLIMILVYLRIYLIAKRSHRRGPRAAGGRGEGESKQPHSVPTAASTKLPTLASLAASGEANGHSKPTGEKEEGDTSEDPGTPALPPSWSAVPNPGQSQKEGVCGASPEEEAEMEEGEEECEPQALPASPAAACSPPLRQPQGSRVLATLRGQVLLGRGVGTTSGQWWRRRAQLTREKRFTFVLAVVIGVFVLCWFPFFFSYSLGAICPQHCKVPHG

What is called IC50 is the concentration that gives 50% inhibition. The low end stands for inhibition by little substance, the high end for a need for much substance. As a reminder, the inhibition is the change of the read-out against control, counted positive when it falls. As for `CNc1cc[n+](CCNC(=O)c2ccn3c(-c4c(C)noc4C)cnc3c2)cc1`, the 50% inhibitory concentration (IC50) in [1] is > 11.8 µM (not active); in test [24], 5.52 µM (not active); in test [26], > 10 µM (not active). In addition, the inhibition was 5.99% in test [2]; 33.4% in test [3]; 4.1% in test [4]; 10.6% in test [5]; -4.49% in [6]; 8.88% in [7]. The inhibition in test [8] is 10.6%; in [9], 0.5%; in test [10], 7.14%; in [11] it was 5%; in test [12], -2.3%; in test [13], 3.22%. In addition, the inhibition in test [14] was 11.8%; in test [15], 32.3%; in test [16] it was 0.79%; in test [17], 0.2%; in test [18], -5%; in test [19], -0.5%. For the same compound, the inhibition in [20] is 3%; in test [21] it was 25.3%; in [22], -1.9%; in test [23] it was -1.7%; in [25], 6.53%; in test [27], 1.62%. For the same compound, the figures for the inhibition in test [28] and in test [29] were 19.5% and 0.5%, respectively.

Take `Cc1noc(C)c1-c1cnc2cc(C(=O)NCCC[n+]3ccc(N(C)C)cc3)ccn12`: the IC50 in test [1] is listed as > 10 µM (not active); in test [30], 10 µM (not active); in [24] it was > 10 µM (not active). Further, the inhibition in [2] is 3.4%; in test [3] it was 81.7%; in [5] it was -1.11%; in test [7], -6.53%; in [10] it was 1.28%; in [13] it was -2.29%. Moreover, the inhibition is 28.2% in [15]; 1.7% in [16]; -1.12% in test [18]; 18.9% in test [25]; 0.59% in test [27]; 24.2% in test [28]. For the same compound, the inhibition in test [31] is -6.93%.
